Test results as given in publication PMC3115942 (PLoS ONE, 2011).
Entries after “also recorded” stand apart in the source; their conditions may differ.

What was measured:
[1] = tested on: GLI1 mRNA in SUIT-2 cells; test: Real time PCR of GLI1 mRNA in SUIT-2; format: cell-based, human; conditions: 48 hrs
Protocol: Cells were lysed for RNA extraction after 48 or 72 hours of treatment. Total RNA from cultured cells or tumor tissue was isolated using the GeneElute miniprep kit (Sigma-Aldritch) following the manufacturer^'s instructions. cDNA was synthesized from the isolated mRNA using the Retroscript kit (Ambion), and real-time PCR was carried out using the SYBR Green PCR master mix (Stratagene) according to the manufacturer^'s instructions with an Mx3000P cycler (Stratagene). The relative concentrations of cDNA present in each sample were calculated by the MxPro software (Stratagene), normalized for GAPDH (mRNA from cells) or GUS (mRNA from tumors). For real time PCR primer sequences see Table 6. For the tumor tissue real time PCR, previously described human and mouse specific primers against GUSB, PTCH1 and GLI1were used.

SUIT-2 cells = test: In vitro antiproliferative assay (MTS), SUIT-2; format: cell-based, human; conditions: 4 day
Protocol: Cells were plated at a density of 3000 (THLE-2 and PC-3) and 1000 (PANC-1, SUIT-2 and FEMX) cells per well (on the basis of their growth rate) in 200 µl of medium in a 96-well plate. Medium was changed daily, and after four days, the assay was read using a MTS kit (Promega) according to the instructions of the manufacturer. Graphs display average of percent growth with standard deviation (n = 8).

PC-3 cells = test: Passage growth assay, PC-3; format: cell-based, human; conditions: 5 µM, passages of 5–7 days
Protocol: 20,000 cells were seeded per well in 6 well plates (triplicates) with DMSO or 5 µM MS-0022. Treatment medium was changed on day 3–5, and after 5–7 days the cells were trypsinized, re-suspended in medium and counted, before reseeding cells at 20,000/well for a subsequent passage. The average growth of MS-0022 treated cells was calculated as a percentage of the growth of the DMSO control at the end of each passage. Graphs display average of percent growth with standard deviation bars (n = 3).

[2] = tested on: TNF-α induced NfkB signaling in NIH3T3 cells; test: NFkB luciferase reporter assay in NIH3T3; format: cell-based; conditions: NIH3T3, 10 µM and 20 µM, 24 hours
Protocol: Vectors were obtained from the following: GliBS-Luc reporter (gift from H. Sasaki), pBluescript (pBS) (Stratagene), FL-HA-GLI1 (Gli1) and Gli2-GFP (Gli2) (gifts from R. Toftgård), Super8XTOPFlash, and NFkB-luc (Panomics). 10 ng renilla luciferase (pRL-TK) (Promega) was used as a transfection control. HEK293 and NIH3T3 cells were seeded at 80,000 per well in 48-well plates on day 1, and were co-transfected on day 2 using a total of 0.4 µg plasmid per well mixed at 1∶3 in FUGENE6 according to manufacturer^'s instructions. On day 3, control medium and activating medium (50% L1 conditioned medium, 50% Shh conditioned medium or medium containing 10 ng/mL recombinant rcrTNF-α (R&D Systems)) +/− 10–20 µM MS-0022 were added, using DMSO as a control (the NFkB pathway inhibitor Bay11-7082 was used as a control in the NFkB assay). Samples were analyzed on day 4 or 5 using the Dual Luciferase assay kit according to manufacturer^'s instructions. Graphs display relative or fold reporter activity, and are calculated from a mean ratio of firefly reporter luminescence/pRL-TK luminescence with standard deviation error bars (n = 3). The experiments have been repeated with similar results.

58 kinases = test: Millipore kinase diversity panel (whole panel); format: biochemical; conditions: 10 µM
DRAK1(h) = target: T1, DRAK1(h) (Homo sapiens, UniProt Q9UEE5); test: Millipore kinaseprofiler diversity array; format: biochemical; conditions: 10 µM MS-0022
T1 construct: purchased Millipore (Upstate) KinaseProfiler
T1 sequence (Q9UEE5 whole entry): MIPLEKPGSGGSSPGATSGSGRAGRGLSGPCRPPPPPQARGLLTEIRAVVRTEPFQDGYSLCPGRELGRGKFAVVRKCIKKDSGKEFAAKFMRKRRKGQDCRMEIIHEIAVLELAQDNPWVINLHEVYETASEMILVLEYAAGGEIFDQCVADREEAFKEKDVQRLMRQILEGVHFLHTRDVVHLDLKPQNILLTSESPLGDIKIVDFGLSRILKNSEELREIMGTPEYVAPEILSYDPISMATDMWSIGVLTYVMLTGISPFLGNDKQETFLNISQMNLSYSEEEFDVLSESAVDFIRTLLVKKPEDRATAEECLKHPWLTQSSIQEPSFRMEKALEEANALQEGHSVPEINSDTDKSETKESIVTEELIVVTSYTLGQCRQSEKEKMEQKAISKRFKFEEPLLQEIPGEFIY
Protocol: (§1) Table 4 Kinase activity in presence of 10 µM MS-0022 in a kinaseprofiler diversity array. | column: Activity %

DYRK2(h) = target: T2, DYRK2(h) (Homo sapiens, UniProt Q92630); test: Millipore kinaseprofiler diversity array; format: biochemical; conditions: 10 µM MS-0022
T2 construct: purchased Millipore (Upstate) KinaseProfiler
Protocol: as §1

EphB4(h) = target: T3, EphB4(h) (Homo sapiens, UniProt P54760); test: Millipore kinaseprofiler diversity array; format: biochemical; conditions: 10 µM MS-0022
T3 construct: purchased Millipore (Upstate) KinaseProfiler
Protocol: as §1

GRK5(h) = target: T4, GRK5(h) (Homo sapiens, UniProt P34947); test: Millipore kinaseprofiler diversity array; format: biochemical; conditions: 10 µM MS-0022
T4 construct: purchased Millipore (Upstate) KinaseProfiler
T4 sequence (P34947 whole entry): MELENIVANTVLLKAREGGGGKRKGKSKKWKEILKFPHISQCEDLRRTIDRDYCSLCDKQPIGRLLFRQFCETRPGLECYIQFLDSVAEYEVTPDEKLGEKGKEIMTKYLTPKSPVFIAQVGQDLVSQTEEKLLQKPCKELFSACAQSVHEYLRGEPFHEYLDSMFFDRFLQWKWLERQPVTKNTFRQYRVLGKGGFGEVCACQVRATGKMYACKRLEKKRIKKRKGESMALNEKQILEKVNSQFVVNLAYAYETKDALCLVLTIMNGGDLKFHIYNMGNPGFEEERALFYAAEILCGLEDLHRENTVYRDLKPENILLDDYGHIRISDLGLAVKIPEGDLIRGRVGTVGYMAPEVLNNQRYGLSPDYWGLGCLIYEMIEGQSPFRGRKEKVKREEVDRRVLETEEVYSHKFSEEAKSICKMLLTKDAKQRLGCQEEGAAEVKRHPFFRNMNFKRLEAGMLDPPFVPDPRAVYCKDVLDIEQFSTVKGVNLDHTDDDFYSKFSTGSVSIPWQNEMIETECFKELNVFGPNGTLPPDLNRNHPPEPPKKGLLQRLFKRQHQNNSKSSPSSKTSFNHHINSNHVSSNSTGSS
Protocol: as §1

GSK3β(h) = target: T5, GSK3β(h) (Homo sapiens, UniProt P49841); test: Millipore kinaseprofiler diversity array; format: biochemical; conditions: 10 µM MS-0022
T5 construct: purchased Millipore (Upstate) KinaseProfiler
Protocol: as §1

IGF-1R(h) = target: T6, IGF-1R(h) (Homo sapiens, UniProt P08069); test: Millipore kinaseprofiler diversity array; format: biochemical; conditions: 10 µM MS-0022
T6 construct: purchased Millipore (Upstate) KinaseProfiler
Protocol: as §1

IKKα(h) = target: T7, IKKα(h) (Homo sapiens, UniProt O15111); test: Millipore kinaseprofiler diversity array; format: biochemical; conditions: 10 µM MS-0022
T7 construct: purchased Millipore (Upstate) KinaseProfiler
T7 sequence (O15111 whole entry): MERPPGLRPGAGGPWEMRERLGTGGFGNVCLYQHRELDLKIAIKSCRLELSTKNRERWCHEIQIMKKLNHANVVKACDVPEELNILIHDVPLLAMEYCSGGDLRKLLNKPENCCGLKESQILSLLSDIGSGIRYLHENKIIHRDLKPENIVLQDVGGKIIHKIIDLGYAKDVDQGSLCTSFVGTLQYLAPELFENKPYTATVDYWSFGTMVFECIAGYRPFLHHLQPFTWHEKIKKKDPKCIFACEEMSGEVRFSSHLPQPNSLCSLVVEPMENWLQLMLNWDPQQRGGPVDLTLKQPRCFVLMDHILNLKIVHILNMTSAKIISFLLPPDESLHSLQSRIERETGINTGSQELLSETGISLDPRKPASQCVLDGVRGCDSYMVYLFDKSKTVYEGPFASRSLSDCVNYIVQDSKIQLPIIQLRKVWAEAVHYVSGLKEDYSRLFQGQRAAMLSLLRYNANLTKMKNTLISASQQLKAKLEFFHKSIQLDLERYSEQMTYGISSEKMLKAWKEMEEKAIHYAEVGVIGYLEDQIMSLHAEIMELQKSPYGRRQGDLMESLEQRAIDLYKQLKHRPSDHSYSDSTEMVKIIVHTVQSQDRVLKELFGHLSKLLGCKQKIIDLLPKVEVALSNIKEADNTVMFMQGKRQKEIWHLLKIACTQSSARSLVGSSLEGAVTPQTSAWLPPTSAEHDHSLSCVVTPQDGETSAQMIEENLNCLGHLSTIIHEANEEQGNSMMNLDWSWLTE
Protocol: as §1

MAPK2(h) = target: T8, MAPK2(h) (Homo sapiens, UniProt P28482); test: Millipore kinaseprofiler diversity array; format: biochemical; conditions: 10 µM MS-0022
T8 construct: purchased Millipore (Upstate) KinaseProfiler
T8 sequence (P28482 whole entry): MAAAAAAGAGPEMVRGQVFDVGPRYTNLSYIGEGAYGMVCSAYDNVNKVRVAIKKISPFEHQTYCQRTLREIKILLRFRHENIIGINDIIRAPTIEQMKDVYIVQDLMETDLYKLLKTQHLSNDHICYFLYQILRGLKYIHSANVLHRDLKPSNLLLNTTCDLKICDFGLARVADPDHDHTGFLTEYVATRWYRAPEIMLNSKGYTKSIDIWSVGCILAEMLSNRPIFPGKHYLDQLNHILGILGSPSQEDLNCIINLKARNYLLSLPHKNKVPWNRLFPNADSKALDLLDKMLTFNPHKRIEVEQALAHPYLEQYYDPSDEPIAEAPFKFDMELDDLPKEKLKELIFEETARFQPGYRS
Protocol: as §1

MEK1(h) = target: T9, MEK1(h) (Homo sapiens, UniProt Q02750); test: Millipore kinaseprofiler diversity array; format: biochemical; conditions: 10 µM MS-0022
T9 construct: purchased Millipore (Upstate) KinaseProfiler
Protocol: as §1

MLK1(h) = target: T10, MLK1(h) (Homo sapiens, UniProt P80192); test: Millipore kinaseprofiler diversity array; format: biochemical; conditions: 10 µM MS-0022
T10 construct: purchased Millipore (Upstate) KinaseProfiler
T10 sequence (P80192 whole entry): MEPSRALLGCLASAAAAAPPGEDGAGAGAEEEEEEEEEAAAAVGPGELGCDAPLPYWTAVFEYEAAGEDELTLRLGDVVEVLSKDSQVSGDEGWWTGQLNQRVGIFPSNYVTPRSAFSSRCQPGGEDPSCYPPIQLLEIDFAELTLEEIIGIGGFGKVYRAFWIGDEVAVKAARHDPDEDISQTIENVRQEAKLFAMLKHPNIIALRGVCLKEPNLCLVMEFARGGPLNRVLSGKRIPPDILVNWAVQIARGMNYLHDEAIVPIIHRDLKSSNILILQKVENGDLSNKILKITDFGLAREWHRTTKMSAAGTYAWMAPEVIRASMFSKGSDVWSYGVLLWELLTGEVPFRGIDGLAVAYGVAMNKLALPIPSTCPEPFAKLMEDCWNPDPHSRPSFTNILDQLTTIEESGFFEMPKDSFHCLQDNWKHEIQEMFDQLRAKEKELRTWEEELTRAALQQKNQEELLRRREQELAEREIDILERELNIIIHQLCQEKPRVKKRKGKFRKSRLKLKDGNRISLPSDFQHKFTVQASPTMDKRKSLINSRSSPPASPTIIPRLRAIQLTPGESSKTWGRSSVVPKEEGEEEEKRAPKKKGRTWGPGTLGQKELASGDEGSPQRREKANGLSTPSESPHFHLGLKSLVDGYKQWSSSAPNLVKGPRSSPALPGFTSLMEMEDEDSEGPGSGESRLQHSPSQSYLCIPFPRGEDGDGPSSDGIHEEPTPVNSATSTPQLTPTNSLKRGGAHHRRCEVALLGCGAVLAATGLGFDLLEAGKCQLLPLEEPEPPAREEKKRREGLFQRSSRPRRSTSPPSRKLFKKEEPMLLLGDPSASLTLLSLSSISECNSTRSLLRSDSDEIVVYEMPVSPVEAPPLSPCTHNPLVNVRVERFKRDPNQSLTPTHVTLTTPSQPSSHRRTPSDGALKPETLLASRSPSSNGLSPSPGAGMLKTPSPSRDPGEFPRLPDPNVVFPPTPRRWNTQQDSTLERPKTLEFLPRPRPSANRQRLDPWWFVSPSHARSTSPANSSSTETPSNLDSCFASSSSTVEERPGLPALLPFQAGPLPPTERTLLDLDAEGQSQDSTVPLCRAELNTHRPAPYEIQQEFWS
Protocol: as §1

NEK2(h) = target: T11, NEK2(h) (Homo sapiens, UniProt P51955); test: Millipore kinaseprofiler diversity array; format: biochemical; conditions: 10 µM MS-0022
T11 construct: purchased Millipore (Upstate) KinaseProfiler
Protocol: as §1

PKA(h) = target: T12, PKA(h) (Homo sapiens, UniProt P17612); test: Millipore kinaseprofiler diversity array; format: biochemical; conditions: 10 µM MS-0022
T12 construct: purchased Millipore (Upstate) KinaseProfiler
Protocol: as §1

PKCθ(h) = target: T13, PKCθ(h) (Homo sapiens, UniProt Q04759); test: Millipore kinaseprofiler diversity array; format: biochemical; conditions: 10 µM MS-0022
T13 construct: purchased Millipore (Upstate) KinaseProfiler
T13 sequence (Q04759 whole entry): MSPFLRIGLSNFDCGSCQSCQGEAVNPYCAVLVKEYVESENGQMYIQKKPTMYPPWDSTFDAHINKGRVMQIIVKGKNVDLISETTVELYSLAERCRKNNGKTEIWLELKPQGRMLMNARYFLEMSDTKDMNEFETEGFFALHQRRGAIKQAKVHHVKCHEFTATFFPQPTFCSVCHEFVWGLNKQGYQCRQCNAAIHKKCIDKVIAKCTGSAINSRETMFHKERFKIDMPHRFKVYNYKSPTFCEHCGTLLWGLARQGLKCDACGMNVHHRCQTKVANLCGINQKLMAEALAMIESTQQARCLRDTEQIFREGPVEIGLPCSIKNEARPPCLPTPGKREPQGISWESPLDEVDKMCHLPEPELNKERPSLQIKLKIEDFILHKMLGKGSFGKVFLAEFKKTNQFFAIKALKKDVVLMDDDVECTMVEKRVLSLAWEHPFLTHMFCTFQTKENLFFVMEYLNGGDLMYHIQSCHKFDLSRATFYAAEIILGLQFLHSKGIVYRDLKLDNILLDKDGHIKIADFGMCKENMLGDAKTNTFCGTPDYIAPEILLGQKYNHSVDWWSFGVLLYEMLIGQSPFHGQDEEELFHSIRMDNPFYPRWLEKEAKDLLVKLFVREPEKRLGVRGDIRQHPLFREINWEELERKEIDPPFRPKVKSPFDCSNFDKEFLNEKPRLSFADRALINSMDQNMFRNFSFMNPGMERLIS
Protocol: as §1

PKG1α(h) = target: T14, PKG1α(h) (Homo sapiens, UniProt Q13976); test: Millipore kinaseprofiler diversity array; format: biochemical; conditions: 10 µM MS-0022
T14 construct: purchased Millipore (Upstate) KinaseProfiler
Protocol: as §1

PRAK(h) = target: T15, PRAK(h) (Homo sapiens, UniProt Q8IW41); test: Millipore kinaseprofiler diversity array; format: biochemical; conditions: 10 µM MS-0022
T15 construct: purchased Millipore (Upstate) KinaseProfiler
T15 sequence (Q8IW41 whole entry): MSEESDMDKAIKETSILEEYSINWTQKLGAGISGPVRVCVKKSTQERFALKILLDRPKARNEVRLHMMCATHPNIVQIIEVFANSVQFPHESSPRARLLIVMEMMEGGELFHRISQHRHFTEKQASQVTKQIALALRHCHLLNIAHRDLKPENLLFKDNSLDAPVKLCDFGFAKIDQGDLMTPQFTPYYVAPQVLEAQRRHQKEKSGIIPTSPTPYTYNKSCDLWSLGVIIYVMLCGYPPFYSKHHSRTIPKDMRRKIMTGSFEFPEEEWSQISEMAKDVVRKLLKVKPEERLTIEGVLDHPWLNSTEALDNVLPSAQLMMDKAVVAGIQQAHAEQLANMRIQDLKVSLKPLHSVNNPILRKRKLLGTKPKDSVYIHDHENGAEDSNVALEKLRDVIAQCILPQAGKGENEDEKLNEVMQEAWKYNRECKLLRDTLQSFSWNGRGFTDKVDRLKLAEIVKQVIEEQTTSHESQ
Protocol: as §1

Pim-1(h) = target: T16, Pim-1(h) (Homo sapiens, UniProt P11309); test: Millipore kinaseprofiler diversity array; format: biochemical; conditions: 10 µM MS-0022
T16 construct: purchased Millipore (Upstate) KinaseProfiler
Protocol: as §1

ROCK-I(h) = target: T17, ROCK-I(h) (Homo sapiens, UniProt Q13464); test: Millipore kinaseprofiler diversity array; format: biochemical; conditions: 10 µM MS-0022
T17 construct: purchased Millipore (Upstate) KinaseProfiler
Protocol: as §1

Rsk1(h) = target: T18, Rsk1(h) (Homo sapiens, UniProt Q15418); test: Millipore kinaseprofiler diversity array; format: biochemical; conditions: 10 µM MS-0022
T18 construct: purchased Millipore (Upstate) KinaseProfiler
Protocol: as §1

cSRC(h) = target: T19, cSRC(h) (Homo sapiens, UniProt P12931); test: Millipore kinaseprofiler diversity array; format: biochemical; conditions: 10 µM MS-0022
T19 construct: purchased Millipore (Upstate) KinaseProfiler
T19 sequence (P12931 whole entry): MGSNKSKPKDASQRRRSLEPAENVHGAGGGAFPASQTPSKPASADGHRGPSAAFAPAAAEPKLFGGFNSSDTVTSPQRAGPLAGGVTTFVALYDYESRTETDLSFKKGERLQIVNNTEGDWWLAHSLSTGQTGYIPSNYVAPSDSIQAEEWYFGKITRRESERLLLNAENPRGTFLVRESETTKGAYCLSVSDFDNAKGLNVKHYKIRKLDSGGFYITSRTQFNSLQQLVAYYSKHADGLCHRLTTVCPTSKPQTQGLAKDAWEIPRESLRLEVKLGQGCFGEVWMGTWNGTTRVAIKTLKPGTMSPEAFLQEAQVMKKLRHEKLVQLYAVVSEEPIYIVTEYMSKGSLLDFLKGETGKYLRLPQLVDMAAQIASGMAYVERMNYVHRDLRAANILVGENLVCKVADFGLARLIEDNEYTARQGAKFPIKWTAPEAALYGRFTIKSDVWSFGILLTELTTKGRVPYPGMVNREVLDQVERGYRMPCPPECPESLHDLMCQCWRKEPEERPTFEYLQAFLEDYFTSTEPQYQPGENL
Protocol: as §1

p70S6K(h) = target: T20, p70S6K(h) (Homo sapiens, UniProt P23443); test: Millipore kinaseprofiler diversity array; format: biochemical; conditions: 10 µM MS-0022
T20 construct: purchased Millipore (Upstate) KinaseProfiler
Protocol: as §1

Cc1cccn2cc(-c3ccc(NC(=O)c4ccccc4Br)cc3)nc12 [MS-0022, 2-bromo-N-(4-(8-methylimidazo[1,2-a]pyridin-2-yl)phenyl)benzamide]
GLI1 mRNA levels, SUIT-2 [1]: reduced GLI1 mRNA levels | growth (MTS), SUIT-2 (SUIT-2 cells): only MS-0022 reduced growth | growth reduction after passage 2, PC-3 (PC-3 cells): 80% | TNF-α induced NfkB signaling [2]: nor did it block; also recorded: slight increase of NFkB signaling | inhibition of kinases of the diversity panel (in words) (58 kinases): did not significantly inhibit | activity at 10 µM (DRAK1(h)): 97% | activity at 10 µM (DYRK2(h)): 97% | activity at 10 µM (EphB4(h)): 99% | activity at 10 µM (GRK5(h)): 119% | activity at 10 µM (GSK3β(h)): 88% | activity at 10 µM (IGF-1R(h)): 105% | activity at 10 µM (IKKα(h)): 103% | activity at 10 µM (MAPK2(h)): 101% | activity at 10 µM (MEK1(h)): 73% | activity at 10 µM (MLK1(h)): 103% | activity at 10 µM (NEK2(h)): 127% | activity at 10 µM (PKA(h)): 100% | activity at 10 µM (PKCθ(h)): 103% | activity at 10 µM (PKG1α(h)): 94% | activity at 10 µM (PRAK(h)): 71% | activity at 10 µM (Pim-1(h)): 103% | activity at 10 µM (ROCK-I(h)): 103% | activity at 10 µM (Rsk1(h)): 91% | activity at 10 µM (cSRC(h)): 83% | activity at 10 µM (p70S6K(h)): 94%
